A short description of this data set: in vivo. Set-up: species or system Sprague Dawley rats. To be noted: male, Sprague Dawley, rat, po, 2.4 mg/kg. The protocol:
42 Male Sprague Dawley rats (weight, 220-280 g) were maintained on a 12-hour light/dark cycle with free access to water and lab chow for 10-14 hours prior to the experiment. Rats were randomly divided into 7 groups (n=6/group) and groups 2-7 received 0 mg/kg, 6.0 mg/kg, and 12.0 mg/kg, 24.0 mg/kg, 48.0 mg/kg and 60.0 mg/kg of Schisandrin A in 1% CMC-Na (300-800 cps) via oral administration, respectively. After 5 minutes, all the groups received 2.4 mg/kg of triptolide in a solution of 2% DMSO-98% Sterile Water via oral administration.
After triptolide treatment, blood samples were collected from individual rat at 5 min, 10 min, 15 min, 20 min, 30 min, 45 min, 1 h, 2 h, 4 h, 8 h, and 24 h, respectively. Plasma was separated by centrifugation at 8000 rpm for 6 minutes at 4° C. and kept at −80° C. until analysis. Plasma homogenate was injected into LC-MS/MS for analysis.

Consider `CC(C)[C@]12O[C@H]1[C@@H]1O[C@]13[C@]1(O[C@H]1C[C@H]1C4=C(CC[C@@]13C)C(=O)OC4)[C@@H]2O` [triptolide], for which the exposure AUC(0-t) (AUC0→t of triptolide) was 31.5 ± 25.4 ng·h/mL. Besides, the total exposure AUC(0-inf) (AUC0→∞ of triptolide) was 31.5 ± 25.4 ng·h/mL. Further, under “Cmax of triptolide”, the Cmax amounted to 56.4 ± 25.1 ng/mL. This molecule also registered an MRT last (MRT0→t of triptolide) of 25.8 ± 9.6 min. This molecule returned a mean residence time MRT inf (MRT0→∞ of triptolide) of 39.6 ± 21 min. The same molecule gave a half-life (T1/2 of triptolide) of 25.2 ± 13.8 min. The Tmax (Tmax of triptolide) came to 9.96 ± 5.4 min.

In general, AUC(0-t) refers to exposure summed from dosing to a finite time, without extrapolation to infinity. For orientation: AUC(0-inf) means the area under the concentration-time curve extrapolated to infinity. Read a low AUC(0-inf) as less exposure. The term Cmax denotes the peak of the concentration-time curve. Broadly, the MRT last is the average time that molecules of a dose stay in the body. Usually MRT inf stands for the average time that molecules of a dose stay in the body. As a reminder, the half-life is the time in which the quantity being followed falls by half. Usually Tmax stands for the time from dosing to the highest level.

Values taken from patent US20200188466A1, “COMPOSITIONS OF SCHISANDRA EXTRACTS AND METHODS THEREOF” (Reyoung Corporation, priority 2017, published 2020).
